Measurements reported in US12459939B2 (SHANGHAI RINGENE BIOPHARMA CO., LTD., priority 2019, dated 2025).
Where two headings read alike, the source gives them in different places.

How the values were obtained:
[1] = molecular target: T1, BRD4-BD2 (Homo sapiens, UniProt O60885); assay: BRD4 AlphaScreen determination (BD2); assay type: binding
T1 construct: purchased ReactionBiologyCorp; (RBC)
Protocol: (1) 1× Assay buffer was prepared according to the kit requirements of ReactionBiologyCorp. (RBC). (2) Compound concentration gradient preparation: the test compounds were tested at final concentrations starting at 10 μM, with 10 concentrations at 3-fold dilution and single well test was set for each concentration. The positive control compound(+)-JQ-1 was tested at final concentrations starting at 1 μM, with 10 concentrations at 3-fold dilution, and duplicated well test was set for each concentration. The solution was gradient diluted to the corresponding 1000-fold final concentration in a 384-well Source plate, and then 20 nL of the solution was transferred to the 384-well reaction plate with Echo550 to be measured. 20 nL of 100% DMSO was transferred to the Max well, and the highest concentration of the positive compounds were transferred to the Min wells. […] (6) 5 μL of 4× peptide solution was added to each well of the reaction plate, centrifuged at 1000 rpm for 1 min. (7) 10 μL of the assay solution was added, centrifuged at 1000 rpm for 60 seconds, the solution was mixed with gentle shaking, and incubated at room temperature for 60 minutes. (8) Reading with EnVision. (9) The IC50 values of the compounds for protein binding inhibition was obtained by fitting the dose-effect curve with the analytical software GraphPad Prism 5. (See Table 1 for specific values)

[2] = molecular target: T2, CYP2C19 (Homo sapiens, UniProt P33261); assay: Direct inhibition test (DI test) in human liver microsomes, CYP2C19; assay type: in vitro ADME; conditions: read-out: inhibitory IC50 on CYP 2C19
T2 construct: human liver microsomes (final concentration was 0.2 mg/mL); from tissue; host or cells: human liver microsomes
T2 sequence (P33261 whole entry): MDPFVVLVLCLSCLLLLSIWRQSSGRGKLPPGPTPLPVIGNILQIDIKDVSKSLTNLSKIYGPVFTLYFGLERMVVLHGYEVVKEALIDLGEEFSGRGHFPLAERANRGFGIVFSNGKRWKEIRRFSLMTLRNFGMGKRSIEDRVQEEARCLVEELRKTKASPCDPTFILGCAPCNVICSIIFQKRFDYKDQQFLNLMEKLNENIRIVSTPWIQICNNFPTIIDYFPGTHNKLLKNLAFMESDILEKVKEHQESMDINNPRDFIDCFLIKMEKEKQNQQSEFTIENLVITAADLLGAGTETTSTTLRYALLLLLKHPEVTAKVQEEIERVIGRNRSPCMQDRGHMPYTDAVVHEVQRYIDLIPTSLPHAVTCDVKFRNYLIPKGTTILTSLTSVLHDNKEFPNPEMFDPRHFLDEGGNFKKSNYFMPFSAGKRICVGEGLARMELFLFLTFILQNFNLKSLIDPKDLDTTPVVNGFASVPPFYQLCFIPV
Protocol: (§1) (2) Direct inhibition test (DI test): 1004 of human liver microsomes (final concentration was 0.2 mg/mL) system was subjected to inhibition incubation directly, the system contains NADPH (final concentration was 1 mM), 10 μM compound, positive inhibitor cocktail (ketoconazole 10 μM, quinidine 10 μM, sulfapyrazole 100 μM, a-naphthoflavone 10 μM, tranylcypromine […]), negative control (0.1% DMSO BPS) and mixed probe substrate (midazolam 1004, testosterone 10004, dextromethorphan 10 μM, diclofenac 20 μM, phenacetin 100 μM, mephenytoin 100 μM), the reaction was terminated after incubation for 20 min. The relative enzyme activity was calculated by measuring the relative production of metabolites.

[3] = tested on: LNCAP, SKM-1, MOLM13, KASUMI 1, THP-1, KG-1; assay: Proliferation inhibition of different cell lines: most sensitive lines; assay type: cell-based; conditions: some cell lines such as LNCAP, read-out: proliferation inhibitory activity IC50
Protocol: The proliferation inhibitory activity of some of the embodiment compounds against different cell lines such as LNCAP (+R1881), SKM-1, 22RV1, DU145, MOLM13, MDA-PCA-2b, KASUMI 1, THP-1, KG-1, IEC6, H1299, etc., was tested using similar methods in test embodiment 2 and in the literature.

[4] = molecular target: T3, CYP1A2 (Homo sapiens, UniProt P05177); assay: Direct inhibition test (DI test) in human liver microsomes, CYP1A2; assay type: in vitro ADME; conditions: read-out: inhibitory IC50 on CYP1A2
T3 construct: human liver microsomes (final concentration was 0.2 mg/mL); from tissue; host or cells: human liver microsomes
T3 sequence (P05177 1-516): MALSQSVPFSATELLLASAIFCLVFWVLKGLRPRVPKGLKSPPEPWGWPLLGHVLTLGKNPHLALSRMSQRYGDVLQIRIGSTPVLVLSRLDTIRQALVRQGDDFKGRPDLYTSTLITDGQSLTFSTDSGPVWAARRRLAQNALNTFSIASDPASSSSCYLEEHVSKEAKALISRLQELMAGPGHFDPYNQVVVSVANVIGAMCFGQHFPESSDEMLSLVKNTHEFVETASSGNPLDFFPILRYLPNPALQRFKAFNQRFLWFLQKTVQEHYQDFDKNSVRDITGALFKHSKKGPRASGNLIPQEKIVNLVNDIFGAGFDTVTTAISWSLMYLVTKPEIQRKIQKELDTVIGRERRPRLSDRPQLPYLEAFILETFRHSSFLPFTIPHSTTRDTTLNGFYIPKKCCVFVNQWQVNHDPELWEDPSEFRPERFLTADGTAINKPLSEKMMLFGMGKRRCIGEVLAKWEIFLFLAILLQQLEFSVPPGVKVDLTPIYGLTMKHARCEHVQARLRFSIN
Protocol: as §1

[5] = tested on: MV4-11 cells; assay: Inhibition of proliferation of MV4-11 cells (CellTiter-Glo); assay type: cell-based; conditions: Homo sapiens, 72 h
Protocol: Specific experimental steps: 1) Day 0: 96 inoculated cells were digested with trypsin and suspended in cell culture medium, the cell density was detected by an automatic cell counter and the cells were diluted with the culture medium to a suitable density, 100 μL of cell suspension was added to the 96-well plate, and the cell-free medium was used as a control well, and the wells were incubated in a 37° C., 5% CO2 cell incubator overnight; 2) Day 1: A total of 8 concentrations of the compound to be tested in the drug-treated cells were tested at 3-fold dilution, 10 μM was the starting assay concentration of the compound to be tested. Specific steps: 200× compound mother liquor was prepared, the compound was diluted with culture medium to a final concentration of […], that is, 3 μL of 200× compound was added to 197 μL of culture medium, 50 μL diluted compound was added to each well of the 96-well plate, and placed at 37° C., 5% CO2 cell culture incubator for 72 h; 3) Day 4: Cell viability detection: 96-well cell plate was first equilibrated to room temperature, 40 μL of CellTiter-Glo® reagent was added to each well, mixed on a shaker for 2 minutes to fully lyse the cells, incubated at room temperature for 10 minutes to stabilize the luminescence signal, and the luminescence value was read by the Envision microplate reader; 4) data processing was performed by GraphPad Prism 5.0 software to analyze the data, and nonlinear S-curve regression was used to fit the data to obtain a dose-effect curve, and from which the ICso value was calculated. Inhibition rate %=(DMSO treated cell wells−compound treated cell wells)/(DMSO treated cell wells−cell free medium wells)×100. The ICso value was obtained by the four-parameter regression method using the random software in the microplate reader. (See Table 2 for specific values)

[6] = tested on: MV 4-11 transplanted tumor; assay: Growth inhibition of MV 4-11 transplanted tumor in nude mice; assay type: in vivo; conditions: for inhibitory rate (growth of transplanted tumor): dose of 15 mpk, oral, daily; for tolerability in experimental animals / tumor inhibitory effect: higher doses, 50 mg/kg-100 mg/kg
Protocol: The tumor tissue in vigorous growth stage was cut into about 1.5 mm^3 and inoculated subcutaneously in the right armpit of nude mice under sterile conditions. The diameter of subcutaneous transplanted tumor in nude mice was measured with vernier caliper, and the animals were randomly divided into groups when the average tumor volume was about 130 mm^3. […] During the whole experiment, the diameter of the transplanted tumor was measured twice a week, and the weight of mice was weighed at the same time. The calculation formula of tumor volume (TV) was: TV=½×a×b^2, wherein a and b represent the length and width respectively. The relative tumor volume (RTV) was calculated according to the measurement results, and the calculation formula was: RTV=VT/v0. Wherein VO is the tumor volume measured during the administration in cage (i.e., d0), and Vt is the tumor volume at each measurement.

SMILES: Cc1cc(F)cc(C)c1Oc1ccc(C(C)(C)O)cc1-c1cn(C)c(=O)c2cc(C(=O)NC3CC(F)(F)C3)[nH]c12 [Embodiment 18, N-(3,3-difluorocyclobutyl)-7-(2-(4-fluoro-2,6-dimethylphenoxy)-5-(2-hydroxyprop-2-yl)phenyl)-5-methyl-4-oxo-4,5-dihydro-1H-pyrrolo[3,2-c] pyridine-2-amide]
- IC50 ([1]; AlphaScreen, protein binding inhibition, read-out: BRD4-BD2 IC50): < 0.5 nM
- IC50 [2]: > 15000 nM
- IC50 [3]: < 100 nM
- IC50 [4]: > 15000 nM
- IC50 [5]: 10.6 nM
- inhibitory rate (growth of transplanted tumor) [6]: 82%
- tolerability in experimental animals [6]: tolerate it well
- tumor inhibitory effect [6]: obvious

SMILES: CCNC(=O)c1cc2c(=O)n(C)cc(-c3cc(C(C)(C)O)ccc3Oc3c(C)cc(F)cc3C)c2[nH]1 [compound 1, reference compound]
- IC50 [1]: 0.65 nM
- IC50 [2]: > 15000 nM
- IC50 [3]: < 100 nM
- IC50 [4]: > 15000 nM
- IC50 [5]: 2.3 nM
- inhibitory rate (growth of transplanted tumor) [6]: 82%
- tolerability in experimental animals [6]: tolerate it well
- tumor inhibitory effect [6]: obvious
